From patent publication US5468772A, “Tripterinin compound and method” (Pharmagenesis, Inc., priority 1993, dated 1995)

Key:
TNFα = TNFα production by PHA stimulated human PBLs (ELISA); type: cell-based; conditions: 24 h
Procedure: (§1) The effect of tripterinin on the production of the cytokines IL-1b, IL2, IL-6, IFNγ, and TNFα was assessed by measurement of the concentration of these cytokines in PHA stimulated human PBL cultures. Cytokine levels were measured by standard ELISA methods using commercially available kits, as detailed in Example 6. Briefly, assay buffer was added to each of the wells of a microtiter plate containing pre-bound anti-cytokine antibody, followed by addition of standard or sample solution, diluted appropriately for the cytokine concentration measured, followed by a second reporter-labeled antibody specific against the anti-cytokine antibody. […]
(§2) Cytokine measurements were carried out using commercially available ELISA assay kits (R&D Systems), in accordance with the supplier's protocols. In brief, 100 μl of the assay buffer supplied was added to each of the wells of a microtiter plate containing pre-bound anti-cytokine antibody, followed by 100 μl of standard or sample solution, diluted appropriately for the concentration range measured. […]
(§3) Following two hours incubation, the plates were washed four times with assay buffer, and the second antibody, anti-anti-cytokine-horseradish peroxidase (HRP), was added to each well in a volume of 200 μl. […] Optical density was determined using a Molecular Devices microtiter plate reader.

human PBLs = assay: Cytotoxicity, MTT reduction, human PBLs; type: cell-based; conditions: up to 10 μg/ml, highest tested, 24 h
Procedure: (§4) Potential cytotoxicity of tripterinin was assessed by measurement of the effect of the compound on reduction of MTT (3-[4,5-Dimethylthiazol-2-yl]-2,5-diphenyltetrazolium bromide) by cultured cells, an index of cellular respiration and a sensitive assay for the detection of cytotoxicity (Green, et al.). Toxicity was evaluated in vitro in human PBLs and in mouse thymocytes, as detailed in Example 7. Sodium azide was used as a cytotoxic control. Cytotoxicity was also assessed using the standard method of trypan blue dye staining.
(§5) Potential cytotoxicity of tripterinin was assessed by measurement of the compound's effect on the reduction of MTT (3-[4,5-Dimethylthiazol-2-yl]-2,5-diphenyltetrazolium bromide) by cultured cells. MTT, a yellow-colored compound, is reduced by mitochondrial enzymes to form a purple crystalline reduction product (formazan), providing an index of cellular respiration as well as a sensitive assay for cytotoxicity (Green, et al.).
(§6) Cytotoxicity was assessed in cultured human PBLs and mouse thymocytes. […] (to solubilize the formazan crystals, the MTT reduction product), optical density was determined at 570-650 nm in a Molecular Devices microtiter plate reader. Data are expressed as the ratio of the optical density of the tripterinin treated sample to that of untreated controls. […]

IL-1b = IL-1b production by PHA stimulated human PBLs (ELISA); type: cell-based; conditions: 0.7 and 3.13 μg/ml tripterinin, 24 h
Procedure: as §1, §2, §3

IL-6 = IL-6 production by PHA stimulated human PBLs (ELISA); type: cell-based; conditions: 24 h
Procedure: as §1, §2, §3

mouse thymocytes = assay: Cytotoxicity, MTT reduction, mouse thymocytes; type: cell-based; conditions: up to 10 μg/ml, highest tested, 24 h
Procedure: as §4, §5, §6

IFNγ = IFNγ production by PHA stimulated human PBLs (ELISA); type: cell-based; conditions: 24 h
Procedure: as §1, §2, §3

[1] = Solubility of crystalline tripterinin in organic solvents; type: physicochemical; conditions: methylene chloride or acetone
IL2 = assay: IL-2 production by PHA stimulated human PBLs (ELISA); type: cell-based; conditions: 24 h
Procedure: as §1, §2, §3

HT-2 cells = assay: Inhibition of IL-2 action: IL-2 stimulated HT-2 cell proliferation; type: cell-based
Procedure: Briefly, HT-2 cells were incubated in the presence of IL2, and in the presence of increasing concentrations of tripterinin. After 20 hours incubation, tritiated thymidine was added and the incubation carried out for an additional 4 hours. Cells were harvested and counted as described for PBL proliferation. […] Half maximal inhibition occurred at about 0.1 μg/ml.
The effect of tripterinin on the action of IL-2 was assessed by measurement of the compound's ability to inhibit IL-2 stimulated growth of the IL-2 dependent cell line HT-2, a well-established biological assay of IL-2 action (O'Gara). HT-2 cells were cultured in 75 cm^2 (Corning) tissue culture flasks in RPMI 1640 medium containing 10% fetal bovine serum (Hyclone), 50 μM 2-mercaptoethanol (Fisher), 10 U/ml recombinant human IL-2 (Cetus), 20 mM HEPES, 2 mM glutamine, 100 U/ml penicillin and 100 μg/ml streptomycin. Cells were passaged every 2 days. For experiments, HT-2 cells were centrifuged at 180×g for 10 minutes, washed twice with 10 ml of IL-2 free culture medium and resuspended in RPMI 1640 medium prepared as above, except containing 5% fetal bovine serum. Final cell concentration was 1×10^4 /well. Cultures were incubated with varying concentrations of the tripterinin (95% air/5% CO2, 37° C.) for 20 hours. […] Cells were harvested and counted as described for the PBL proliferation assay.

With `C[C@]12CCC[C@]3(COC1=O)[C@@H]2CC[C@@]12C[C@@H](CC[C@]13O)[C@](C)(O)C2` [tripterinin] the “decrease in TNFα production” value (TNFα; 0.7 μg/ml tripterinin) was 93%, the “decrease in TNFα production” value (TNFα; 3.13 μg/ml tripterinin) was 98% and the “cytotoxicity (MTT reduction)” value (human PBLs) was “No significant toxicity”. For the same compound, the “cytotoxicity (MTT reduction)” value (human PBLs; listed as Tripterinin) was “no significant toxicity”, the “effect on IL-1B production” value (IL-1b) was “did not significantly affect” and the “decrease in IL-6 production” value (IL-6; 0.7 μg/ml tripterinin) was 83%. The “decrease in IL-6 production” value (IL-6; 3.13 μg/ml tripterinin) was 99%, the “cytotoxicity (MTT reduction)” value (mouse thymocytes) was “No significant toxicity” and the “cytotoxicity (MTT reduction)” value (mouse thymocytes; listed as Tripterinin) was “no significant toxicity”. The “decrease in IFNγ production” value (IFNγ; 0.7 μg/ml tripterinin) was 84%, the “decrease in IFNγ production” value (IFNγ; 3.13 μg/ml tripterinin) was 80% and the “dissolution of crystalline compound” value [1] was “dissolved easily”. For the same compound, the “decrease in IL2 production” value (IL2; 0.7 μg/ml tripterinin) was 96%, the “decrease in IL2 production” value (IL2; 3.13 μg/ml tripterinin) was 96% and the “fold inhibition of IL-2 induced DNA synthesis” value (HT-2 cells; concentration range 0 to 0.78 μg/ml) was over 10 fold. For the same compound, the “fold decrease in IL-2 induced HT-2 cell proliferation (thymidine incorporation)” value (HT-2 cells; tripterinin 0.4 μg/ml) was “more than 10 fold”.
